Source: ChEMBL document CHEMBL5338753, “Stapled Peptides as Direct Inhibitors of Nrf2-sMAF Transcription Factors” (J Med Chem, 2023)
Activity calls are given as the source filed them. The calls are words filed in the database; no cut-off is given here. Positions of bridges follow the written chain, without caps; N, C: chain ends. Non-standard residues stand in square brackets, D forms with d. Residues, ends and D or L forms follow the SMILES beside them. ξ: configuration not given here. *: point of attachment. Biotin = O=C1N[C@H]2[C@H](CS[C@H]2CCCCC(=O)*)N1; R5 = C=CCCC[C@@](C)(N)C(=O)O; ξIle = CC[C@H](C)C(N)C(=O)O; Ahx = NCCCCCC(=O)O

Experiments:
[1] = target: T1, Nuclear factor erythroid 2-related factor 2 (Homo sapiens) (UniProt Q16236); assay: Inhibition of human Nrf2 in HEK-293T cells expressing ARE-firefly luciferase and TK-Renilla luciferase at 0 to 100 uM incubated for 16 hrs by Dual-Luciferase reporter based luminometer analysis; format: cell-based; conditions: dose 0-100 µM
T1 sequence (whole entry): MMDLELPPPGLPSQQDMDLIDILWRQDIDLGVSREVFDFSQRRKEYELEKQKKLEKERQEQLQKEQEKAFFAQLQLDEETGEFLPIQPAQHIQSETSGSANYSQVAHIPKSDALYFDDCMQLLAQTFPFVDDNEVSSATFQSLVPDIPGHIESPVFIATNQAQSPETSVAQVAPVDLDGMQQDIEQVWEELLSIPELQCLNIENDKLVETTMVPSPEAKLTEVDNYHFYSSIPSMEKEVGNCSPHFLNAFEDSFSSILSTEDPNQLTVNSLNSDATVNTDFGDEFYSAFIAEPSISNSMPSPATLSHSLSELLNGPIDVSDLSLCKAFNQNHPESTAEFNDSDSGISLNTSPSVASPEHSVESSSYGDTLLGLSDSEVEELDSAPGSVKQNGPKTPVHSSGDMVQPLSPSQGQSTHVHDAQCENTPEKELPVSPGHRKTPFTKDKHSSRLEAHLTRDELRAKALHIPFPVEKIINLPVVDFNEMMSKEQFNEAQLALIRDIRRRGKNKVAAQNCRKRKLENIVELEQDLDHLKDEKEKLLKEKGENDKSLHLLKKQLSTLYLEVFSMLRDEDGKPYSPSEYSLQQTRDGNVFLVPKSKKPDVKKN

[2] = target: T1, Nuclear factor erythroid 2-related factor 2 (Homo sapiens); assay: Inhibition of human Nrf2 in HEK-293T cells expressing NQO1-ARE-firefly luciferase and TK-Renilla luciferase at 50 uM incubated for 16 hrs by Dual-Luciferase reporter based luminometer analysis; format: cell-based
[3] = Stability of compound assessed as proteinase K (unknown origin) mediated compound degradation at 55 uM measured upto 24 hrs by LC/MS analysis; format: ADME; conditions: human
[4] = Stability of compound assessed as proteinase K (unknown origin) mediated compound degradation at 55 uM measured after 40 mins by LC/MS analysis; format: ADME; conditions: human
[5] = target: T2, Transcription factor MafG (Homo sapiens, UniProt O15525); assay: Binding affinity to human His-tagged MafG at 1 uM incubated for 10 mins with 188 to 3000 nM protein by SPR analysis
T2 sequence (O15525 whole entry): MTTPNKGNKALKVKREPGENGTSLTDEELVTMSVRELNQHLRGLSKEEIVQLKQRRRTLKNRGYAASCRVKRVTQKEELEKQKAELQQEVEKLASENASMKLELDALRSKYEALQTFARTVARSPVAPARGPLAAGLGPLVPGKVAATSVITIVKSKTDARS

[6] = target: T2, Transcription factor MafG; assay: Binding affinity to human His-tagged MafG expressed in Escherichia coli Rosetta (DE3) by immunoprecipitation assay
[7] = target: T2, Transcription factor MafG; assay: Binding affinity to human His-tagged MafG expressed in Escherichia coli Rosetta (DE3) incubated in presence of unlabeled peptide by immunoprecipitation assay
[8] = target: Albumin (Bos taurus, UniProt P02769); assay: Binding affinity to bovine serum albumin at 1 uM by SPR analysis; conditions: cattle
Chain of Albumin (P02769 whole entry): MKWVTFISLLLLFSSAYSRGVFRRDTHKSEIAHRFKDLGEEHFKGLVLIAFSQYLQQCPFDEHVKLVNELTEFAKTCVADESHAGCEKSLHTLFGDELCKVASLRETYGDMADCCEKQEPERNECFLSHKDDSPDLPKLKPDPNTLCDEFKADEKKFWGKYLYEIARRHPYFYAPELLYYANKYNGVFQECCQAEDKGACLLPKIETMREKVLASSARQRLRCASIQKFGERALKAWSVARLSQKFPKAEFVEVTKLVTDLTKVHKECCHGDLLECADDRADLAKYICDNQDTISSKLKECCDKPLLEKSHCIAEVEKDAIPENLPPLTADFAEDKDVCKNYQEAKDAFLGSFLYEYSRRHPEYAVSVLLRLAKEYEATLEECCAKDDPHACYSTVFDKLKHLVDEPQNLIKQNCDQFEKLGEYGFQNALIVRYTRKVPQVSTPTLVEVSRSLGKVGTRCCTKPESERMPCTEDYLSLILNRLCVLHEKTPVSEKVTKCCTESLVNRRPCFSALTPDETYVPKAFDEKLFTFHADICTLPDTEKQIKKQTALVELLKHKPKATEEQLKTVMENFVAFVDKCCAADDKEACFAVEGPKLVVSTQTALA

[9] = target: T2, Transcription factor MafG; assay: Binding affinity to human His-tagged MafG assessed as dissociation constant incubated for 10 mins by SPR analysis

CC(=O)N[C@@H](C)C(=O)N[C@H](C(=O)N[C@@H](CCC(=O)O)C(=O)N[C@@H](C)C(=O)N[C@@H](CCC(=O)O)C(=O)N[C@]1(C)CCC/C=C\CCC[C@](C)(C(=O)N[C@@H](C)C(=O)N[C@@H](CCCCN)C(=O)N[C@@H](CC(=O)O)C(=O)N[C@@H](CCC(=O)O)C(=O)N[C@@H](C)C(=O)N[C@@H](CCC(=O)O)C(N)=O)NC(=O)[C@H](CC(=O)O)NC(=O)[C@H](C)NC(=O)[C@H](CC(=O)O)NC1=O)C(C)C (Ac-AVEAE[R5]DAD[R5]AKDEAE-NH2; staple (Z) 6-10)
inhibition [1]: inactive

CC(=O)N[C@@H](CC(=O)O)C(=O)N[C@@H](CCC(=O)O)C(=O)N[C@@H](CCCCN)C(=O)N[C@@H](CCC(=O)O)C(=O)N[C@@H](CCCCN)C(=O)N[C@@H](CC(C)C)C(=O)N[C@]1(C)CCC/C=C\CCC[C@](C)(C(=O)N[C@@H](CCC(=O)O)C(=O)N[C@@H](CC(N)=O)C(=O)N[C@@H](CC(=O)O)C(=O)N[C@@H](CCCCN)C(=O)N[C@@H](CO)C(N)=O)NC(=O)[C@H](CCCCN)NC(=O)[C@H](CCC(=O)O)NC(=O)[C@H](CCCCN)NC1=O (Ac-DEKEKL[R5]KEK[R5]ENDKS-NH2; staple (Z) 7-11)
inhibition [2]: inactive
Stability [3]: Stable

CC(=O)N[C@@H](CC(=O)O)C(=O)N[C@@H](CC(C)C)C(=O)N[C@@H](CC(=O)O)C(=O)N[C@@H](Cc1c[nH]cn1)C(=O)N[C@@H](CC(C)C)C(=O)N[C@]1(C)CCC/C=C\CCC[C@](C)(C(=O)N[C@@H](CCCCN)C(=O)N[C@@H](CC(C)C)C(=O)N[C@@H](CC(C)C)C(=O)N[C@@H](CCCCN)C(=O)N[C@@H](CCC(=O)O)C(=O)N[C@@H](CCCCN)C(N)=O)NC(=O)[C@H](CCCCN)NC(=O)[C@H](CCC(=O)O)NC(=O)[C@H](CC(=O)O)NC1=O (Ac-DLDHL[R5]DEK[R5]KLLKEK-NH2; staple (Z) 6-10)
inhibition [2]: inactive
Stability [4]: Unstable

CC(C)C[C@H](NC(=O)[C@H](CCCCN)NC(=O)[C@H](CCC(=O)O)NC(=O)[C@H](CCCCN)NC(=O)[C@H](CCC(=O)O)NC(=O)[C@H](CC(=O)O)NC(=O)CCCCCNC(=O)CCCC[C@@H]1SC[C@@H]2NC(=O)N[C@@H]21)C(=O)N[C@]1(C)CCC/C=C\CCC[C@](C)(C(=O)N[C@@H](CCC(=O)O)C(=O)N[C@@H](CC(N)=O)C(=O)N[C@@H](CC(=O)O)C(=O)N[C@@H](CCCCN)C(=O)N[C@@H](CO)C(N)=O)NC(=O)[C@H](CCCCN)NC(=O)[C@H](CCC(=O)O)NC(=O)[C@H](CCCCN)NC1=O ({Biotin-Ahx}-DEKEKL[R5]KEK[R5]ENDKS-NH2; staple (Z) 7-11)
Activity [5]: inactive
Activity [6]: inactive

CC(C)C[C@H](NC(=O)[C@H](CC(=O)O)NC(=O)CCCCCNC(=O)CCCC[C@@H]1SC[C@@H]2NC(=O)N[C@@H]21)C(=O)N[C@@H](CC(=O)O)C(=O)N[C@@H](Cc1c[nH]cn1)C(=O)N[C@@H](CC(C)C)C(=O)N[C@]1(C)CCC/C=C\CCC[C@](C)(C(=O)N[C@@H](CCCCN)C(=O)N[C@@H](CC(C)C)C(=O)N[C@@H](CC(C)C)C(=O)N[C@@H](CCCCN)C(=O)N[C@@H](CCC(=O)O)C(=O)N[C@@H](CCCCN)C(N)=O)NC(=O)[C@H](CCCCN)NC(=O)[C@H](CCC(=O)O)NC(=O)[C@H](CC(=O)O)NC1=O ({Biotin-Ahx}-DLDHL[R5]DEK[R5]KLLKEK-NH2; staple (Z) 6-10)
Activity [6]: inactive

CC[C@H](C)C(NC(=O)CCCCCNC(=O)CCCC[C@@H]1SC[C@@H]2NC(=O)N[C@@H]21)C(=O)N[C@H](C(=O)N[C@@H](CCC(=O)O)C(=O)N[C@@H](CC(C)C)C(=O)N[C@@H](CCC(=O)O)C(=O)N[C@]1(C)CCC/C=C\CCC[C@](C)(C(=O)N[C@@H](CC(C)C)C(=O)N[C@@H](CCCCN)C(=O)N[C@@H](CC(=O)O)C(=O)N[C@@H](CCC(=O)O)C(=O)N[C@@H](CCCCN)C(=O)N[C@@H](CCC(=O)O)C(N)=O)NC(=O)[C@H](CC(=O)O)NC(=O)[C@H](CC(C)C)NC(=O)[C@H](CC(=O)O)NC1=O)C(C)C (stereo partly specified) ({Biotin-Ahx}-[ξIle]VELE[R5]DLD[R5]LKDEKE-NH2; staple (Z) 6-10)
Activity [7]: Active
Activity [8]: Not Active
Activity [6]: Active
Kd [9]: 337 nM

Ac-DEKEKLLKEKGENDKS-NH2
inhibition [2]: inactive

Ac-DLDHLKDEKEKLLKEK-NH2
inhibition [2]: inactive

Ac-IVELEQDLDHLKDEKE-NH2
inhibition [2]: inactive
Stability [3]: Unstable
